# Experimental data as given in patent US7759101B2, “Ginsenoside glycosidases hydrolyzing ginsenoside sugar moieties and uses thereof” (priority 2000, dated 2010).
# Assays:
# [1] = test system: ginsenoside glycosidase III; assay: Hydrolysis of ginsenoside Rd with ginsenoside glycosidase III (Fraction 18); type: biochemical, Aspergillus niger; details: substrate 0.5%, pH 5.0, 30° C., 18 hours
# Protocol: Ginsenoside glycosidase II was purified from the crude enzyme solution obtained in 1.1 by HPLC. Separation column: Bio-Scale Q (BioRad), 2 ml/tube. 1 ml of the crude enzyme solution was loaded on the column, and eluted with solvent A (25 mM Tris-HCl buffer pH 7.4) and solvent B (0.5M NaCl in 20 mM Tris-HCl buffer pH 7.4). Fraction 18 appeared as a single dot when running on a SDS-polyacrylamide gel and thus represented a purified enzyme. The enzyme was designated as ginsenoside glycosidase III. This enzyme can hydrolyze the diglucosyl groups at C-3 of aglycone, converting Rd and Rg3 to C-K and aglycone.
# To observe the differences between the ginsenoside glycosidases of the invention and known exo-cellulases, the ginsenoside glycosidases of the invention were compared with cellulose β-glucosidase (E.C. 3.2.1.21) in two reactions with 0.5% ginsenosides Rb1 or Rd as substrate.
# [2] = test system: Ginsenoside Glycosidases from Yeast; assay: Hydrolysis of Rd with ginsenoside glycosidases from yeast; type: biochemical, Candida sp. FFCCDL-2 g; details: 0.5% Rd in acetate buffer, 60° C., 12 hours
# Protocol: Candida sp. FFCCDL-2 g (available from Food Fermentation Culture Collection of Dalian Institute of Light Industry) was cultured with shaking at 30° C. for 56 hours in a medium containing 2% by weight of ginseng extracts and 8% by weight of malt extracts. Cells were removed by centrifugation, after which (NH4)2SO4 powder was added to 500 ml of the cell-free supernatant to 65% saturation. The solution was dialyzed against 0.01M acetate buffer pH 5. Insolubles were removed by centrifugation, and 25 ml of crude enzyme solution was obtained.
# 10 ml of the enzyme solution was allowed to react with 10 ml of 0.5% Rd in acetate buffer at 60° C. for 12 hours. […] The enzymes can also hydrolyze β-(1→2)-glucoside of Rg3 to give Rh2.
# [3] = test system: ginsenoside glycosidases from Streptomyces; assay: Hydrolysis of Rd with ginsenoside glycosidases from Streptomyces; type: biochemical, Streptomyces sp. FFCCDL-2 g; details: 1% Rd in acetate buffer containing 20% ethanol, 50° C., 20 hours
# Protocol: Streptomyces sp. FFCCDL-2 g (available from Food Fermentation Culture Collection of Dalian Institute of Light Industry) was cultured at 30° C. for 48 hours in a medium containing 1% by weight of ginseng extracts and 3% by weight of wheat bran extracts. Cells were removed by centrifugation, after which (NH4)2SO4 powder was added to 300 ml of the cell-free supernatant to 70% saturation to precipitate the enzymes. The solution was stored at 4° C. overnight and centrifuged to collect the pellets. The pellets were resuspended and the suspension was dialyzed against 0.01M acetate buffer pH 5. Impurities were removed by centrifugation, and 15 ml of crude enzyme solution was obtained.
# 10 ml of the enzyme solution was allowed to react with 10 ml of 1% Rd in acetate buffer containing 20% ethanol at 50° C. for 20 hours.
# [4] = test system: ginsenoside glycosidase III from ginseng plant; assay: Hydrolysis of Rd with fraction 37 (ginsenoside glycosidase III) from ginseng plant; type: biochemical; details: Fraction 37; substrate 0.5%; 50° C., pH 5.0, 18 hours
# Protocol: 200 g of fresh ginseng root was cut into pieces and added to 600 ml of 0.02 M acetate buffer pH 5. Supernatant was obtained by filtration after the mixture stand at 40° C. for 2 hours. To the supernatant (NH4)2SO4 was added gradually until 70% saturation and the mixture stand overnight at 4° C. Then protein pellets were collected by centrifugation and redissolved in 15 ml of distilled water. The solution was dialyzed against 0.02 M Tris-HCl pH 7.4. Insolubles were removed by centrifugation and the volume of the supernatant was adjusted to 20 ml.
# 5 ml of the enzyme solution was subjected to a DEAE-Cellulose DE-25 column (Whatman, 1.4×6.7 cm). The column was eluted with a KCl gradient (0.06, 0.12, 0.18 and 0.24 M) in 0.02 M Tris-HCl pH 7.4. After elution, each fraction was tested for the activity of hydrolyzing ginsenosides. […] Fraction 52 can also hydrolyze the glucosidic bond at the twentieth carbon atom of Rb and Rc to give ginsenoside F2.
# [5] = test system: ginsenoside glycosidases from Tremella; assay: Hydrolysis of Rb1 with ginsenoside glycosidases from Tremella; type: biochemical, Tremella sp. FFCCDL-12 g; details: 1% Rb1 in acetate buffer containing 20% ethanol, 40° C., 20 hours
# Protocol: Tremella sp. FFCCDL-12 g (available from Food Fermentation Culture Collection of Dalian Institute of Light Industry) was cultured on a solid medium containing 125 g of ginseng powder, 374 g of wheat bran and 500 ml of water for 5 to 7 days. Then 2500 ml of 0.01 M acetate buffer pH 5.0 was added to the solid medium to stand for 2 hours. Insolubles were removed by centrifugation and approximately 2000 ml liquid was obtained. (NH4)2SO4 powder was added to the liquid with stirring to 70% saturation. The solution was stored at 4° C. overnight and centrifuged to collect the pellets. The pellets were resuspended and the suspension was dialyzed against 0.01M acetate buffer pH 5. Then the solution was diluted in 0.01 M acetate buffer to a volume of 150 ml. Impurities were removed by centrifugation, and crude enzyme solution was obtained.
# 10 ml of the enzyme solution was allowed to react with 10 ml of 1% Rb1 in acetate buffer containing 20% ethanol at 40° C. for 20 hours. […] The optimal reaction temperature for the enzymes is 50° C. and the optimal pH is pH 5.5.
# Enzymes from Malts = assay: Hydrolysis of Rb1 with enzymes from malts; type: biochemical, malt; details: 1% Rb1 solution, pH 5, 20% ethanol, 40° C., 20 hours
# Protocol: 200 g of malt was ground and added to 1000 ml of 0.01 M acetate buffer pH 5 for extraction under room temperature for two hours. The mixture was filtrated. To the supernatant 3 volumes of ethanol was added and stand overnight. Precipitates were collected to which 50 ml of 0.01 M acetate buffer pH 5 was added. Insolubles were removed and enzyme solution was obtained. 10 ml of the enzyme solution was allowed to react with 10 ml of 1% Rb1 solution (in 0.01 M acetate buffer pH 5 containing 20% ethanol) at 40° C. for 20 hours. The product was detected by TLC. As a result, more than 95% Rb1 was converted to Rd, F2, C-K and Rg3 and the like.
# [6] = test system: Enzymes from Animal Liver; assay: Hydrolysis of Rb1 with enzymes from animal liver; type: biochemical, bovine; details: 1% Rb1 solution, pH 5, 20% ethanol, 40° C., 20 hours
# Protocol: 100 g of bovine liver was minced and added to 300 ml of 0.01 M acetate buffer pH 5 for extraction under room temperature for two hours. The mixture was centrifuged and (NH4)2SO4 was added to the supernatant to 70% saturation to precipitate the enzymes. The mixture was stored at 4° C. overnight. Precipitates were collected by centrifugation and dialyzed against 0.01 M acetate buffer pH 5. Impurities were removed and 15 ml of enzyme solution was obtained. 10 ml of the enzyme solution was allowed to react with 10 ml of 1% Rb1 solution (in 0.01 M acetate buffer pH 5 containing 20% ethanol) at 40° C. for 20 hours.
SMILES,Percentage of C—K in the reaction product [1] [%],Percentage of Rd in the reaction product [1] [%],Percentage of aglycone in the reaction product [1] [%],Rd converted to ginsenoside F2 [2] [%],Rd converted to ginsenoside F2 [3] [%],Percentage of C—K in the reaction product [4] [%],Percentage of Rd in the reaction product [4] [%],C-K in the product mixture [5] [%],F2 in the product mixture [5] [%],Rd in the product mixture [5] [%],"Rb1 converted to Rd, F2, C-K and Rg3 and the like (Enzymes from Malts)",Rb1 converted to ginsenosides with lower sugar contents [6] [%]
"CC(C)=CCC[C@](C)(O[C@@H]1O[C@H](CO)[C@@H](O)[C@H](O)[C@H]1O)[C@H]1CC[C@]2(C)[C@@H]1[C@H](O)C[C@@H]1[C@@]3(C)CC[C@H](O[C@@H]4O[C@H](CO)[C@@H](O)[C@H](O)[C@H]4O[C@@H]4O[C@H](CO)[C@@H](O)[C@H](O)[C@H]4O)C(C)(C)[C@@H]3CC[C@]12C [Rd, ginsenoside Rd]",36,61,3,73,50,55,45,,,,,
"CC(C)=CCC[C@](C)(O[C@@H]1O[C@H](CO[C@@H]2O[C@H](CO)[C@@H](O)[C@H](O)[C@H]2O)[C@@H](O)[C@H](O)[C@H]1O)[C@H]1CC[C@]2(C)[C@@H]1[C@H](O)C[C@@H]1[C@@]3(C)CC[C@H](O[C@@H]4O[C@H](CO)[C@@H](O)[C@H](O)[C@H]4O[C@@H]4O[C@H](CO)[C@@H](O)[C@H](O)[C@H]4O)C(C)(C)[C@@H]3CC[C@]12C [Rb1, ginsenoside Rb1]",,,,,,,,35,40,25,more than 95%,50
